A word on the EC50: it is the midpoint of the concentration-response curve.

This test deals with GST-RIPK1 (recombinant GST-RIPK1 kinase domain (residues 1-327)) (Homo sapiens (Human), UniProt Q13546). Kind of test: RIPK1-ADP-Glo Enzymatic Assay. As to conditions: 25 nM GST-RIPK1, 300 μM ATP, 3 μM dephosphorylated-MBP, 30 min pre-incubation, 150 min reaction. It is filed as biochemical. Summed up: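 GST-RIPK1 kinase domain (1-327, Sf21-expressed), 25 nM final, pre-incubated 30 min with compound (1% DMSO), then reacted 150 min with 300 μM ATP and 3 μM dephosphorylated MBP in HEPES pH 7.3/MgCl2 buffer. ADP measured by ADP-Glo luminescence; EC50 from 10-point 1:3 titrations (top 100000 nM), four-parameter fit.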
Sequence of GST-RIPK1 (recombinant GST-RIPK1 kinase domain (residues 1-327)) (Q13546 1-327): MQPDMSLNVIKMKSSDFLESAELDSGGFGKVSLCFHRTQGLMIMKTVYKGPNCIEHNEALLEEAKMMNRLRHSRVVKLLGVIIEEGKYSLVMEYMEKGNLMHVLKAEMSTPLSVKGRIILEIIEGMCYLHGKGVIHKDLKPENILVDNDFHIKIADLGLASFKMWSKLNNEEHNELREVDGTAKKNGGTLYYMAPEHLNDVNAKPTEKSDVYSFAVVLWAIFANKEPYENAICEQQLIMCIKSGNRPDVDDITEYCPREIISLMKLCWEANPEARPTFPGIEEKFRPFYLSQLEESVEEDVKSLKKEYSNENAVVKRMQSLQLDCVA
Background: ADP-Glo first removes unused ATP, then detects ADP through luciferase.
For `COC(=O)C12CC(n3nc4n(c3=O)[C@H](c3ccccc3)CC4)(C1)C2` [Compound 1-19, methyl 3-[(5S)-3-oxo-5-phenyl-6,7-dihydro-3H-pyrrolo[2,1-c][1,2,4]triazol-2(5H)-yl]bicyclo[1.1.1]pentane-1-carboxylate], the EC50 came out at 289 nM.

In the case of `N#CC12CC(n3nc4n(c3=O)[C@H](c3cc(F)cc(F)c3)CC4)(C1)C2(F)F` [Compound 3-1, 3-[(5S)-5-(3,5-difluorophenyl)-3-oxo-6,7-dihydro-3H-pyrrolo[2,1-c][1,2,4]triazol-2(5H)-yl]-2,2-difluorobicyclo[1.1.1]pentane-1-carbonitrile], the concentration giving a half-maximal response (EC50) came to 20 nM.

For the molecule `O=c1n(C23CC(C(F)F)(C2)C3)nc2n1[C@H](c1cncc(F)c1)CC2` [Compound 1-57, (S)-2-(3-(difluoromethyl)bicyclo[1.1.1]pentan-1-yl)-5-(5-fluoropyridin-3-yl)-2,5,6,7-tetrahydro-3H-pyrrolo[2,1-c][1,2,4]triazol-3-one], the EC50 came to 369 nM.

Turning to `O=c1n(C23CC(F)(C2)C3)nc2n1[C@H](c1cnccn1)C[C@@H]2F` [Compound 4-17, (5S,7S)-7-fluoro-2-(3-fluorobicyclo[1.1.1]pentan-1-yl)-5-(pyrazin-2-yl)-2,5,6,7-tetrahydro-3H-pyrrolo[2,1-c][1,2,4]triazol-3-one], the EC50 is 38.8 nM.

Regarding `N#CC12CC(n3nc4n(c3=O)[C@H](c3ccc(F)cc3F)CC4)(C1)C2` [Compound 1-47, (S)-3-(5-(2,4-difluorophenyl)-3-oxo-6,7-dihydro-3H-pyrrolo[2,1-c][1,2,4]triazol-2(5H)-yl)bicyclo[1.1.1]pentane-1-carbonitrile], the EC50 is 86.4 nM.

As for `N#CC12CC(n3nc4n(c3=O)[C@H](c3ccc(C(F)F)cc3)CC4)(C1)C2` [Compound 7-1, (S)-3-(5-(4-(difluoromethyl)phenyl)-3-oxo-6,7-dihydro-3H-pyrrolo[2,1-c][1,2,4]triazol-2(5H)-yl)bicyclo[1.1.1]pentane-1-carbonitrile], the EC50 amounted to 90.2 nM.

Take `O=c1n(C23CC(F)(C2)C3)nc2n1[C@H](c1ccc(C3CC3)cc1)CC2` [Compound 4-11, (S)-5-(4-cyclopropylphenyl)-2-(3-fluorobicyclo[1.1.1]pentan-1-yl)-2,5,6,7-tetrahydro-3H-pyrrolo[2,1-c][1,2,4]triazol-3-one]: the half-maximal effective concentration (EC50) is 108 nM.

As to `N#CC12CCC(n3nc4n(c3=O)[C@H](c3ccccc3)CC4)(C1)C2` [Compound 1-39, 4-[(5S)-3-oxo-5-phenyl-6,7-dihydro-3H-pyrrolo[2,1-c][1,2,4]triazol-2(5H)-yl]bicyclo[2.1.1]hexane-1-carbonitrile], the EC50 was determined as 47 nM.

Consider `N#Cc1ccc([C@@H]2CCc3nn(C45CC(F)(C4)C5)c(=O)n32)cc1` [Compound 1-67, (S)-4-(2-(3-fluorobicyclo[1.1.1]pentan-1-yl)-3-oxo-2,5,6,7-tetrahydro-3H-pyrrolo[2,1-c][1,2,4]triazol-5-yl)benzonitrile], for which the EC50 is 279 nM.

`Cc1cc(F)c([C@@H]2CCc3nn(C45CC(F)(C4)C5)c(=O)n32)c(F)c1` [Compound 1-74, (S)-5-(2,6-difluoro-4-methylphenyl)-2-(3-fluorobicyclo[1.1.1]pentan-1-yl)-2,5,6,7-tetrahydro-3H-pyrrolo[2,1-c][1,2,4]triazol-3-one]: the concentration giving a half-maximal response (EC50) stood at 20.9 nM.

Consider `N#CC12CC(n3nc4n(c3=O)[C@H](c3cccc(C(F)(F)F)c3)CC4)(C1)C2` [Compound 1-49, (S)-3-(3-oxo-5-(3-(trifluoromethyl)phenyl)-6,7-dihydro-3H-pyrrolo[2,1-c][1,2,4]triazol-2(5H)-yl)bicyclo[1.1.1]pentane-1-carbonitrile], for which the EC50 is 874 nM.

In the case of `C#Cc1cccc(C2CCc3nn(C45CC(F)(C4)C5)c(=O)n32)c1` (racemic) [Compound 4-4, (±)-5-(3-ethynylphenyl)-2-(3-fluorobicyclo[1.1.1]pentan-1-yl)-2,5,6,7-tetrahydro-3H-pyrrolo[2,1-c][1,2,4]triazol-3-one], the EC50 is 495 nM.

`CC(F)(F)C12CC(n3nc4n(c3=O)[C@H](c3ccccc3)CC4)(C1)C2` [Compound 1-32, (5S)-2-[3-(1,1-difluoroethyl)bicyclo[1.1.1]pentan-1-yl]-5-phenyl-2,5,6,7-tetrahydro-3H-pyrrolo[2,1-c][1,2,4]triazol-3-one]: the EC50 is 36.4 nM.

With `N#CC12CC(n3nc4n(c3=O)[C@H](c3ccc(C(F)(F)F)cc3)CC4)(C1)C2` [Compound 1-50, (S)-3-(3-oxo-5-(4-(trifluoromethyl)phenyl)-6,7-dihydro-3H-pyrrolo[2,1-c][1,2,4]triazol-2(5H)-yl)bicyclo[1.1.1]pentane-1-carbonitrile], the 50% effective concentration (EC50) was 250 nM.

On to `O=c1n(C23CC(F)(C2)C3)nc2n1[C@H](c1ccc(F)cc1F)CC2` [Compound 1-48, (S)-5-(2,4-difluorophenyl)-2-(3-fluorobicyclo[1.1.1]pentan-1-yl)-2,5,6,7-tetrahydro-3H-pyrrolo[2,1-c][1,2,4]triazol-3-one], for which the concentration for a half-maximal effect (EC50) worked out at 54.4 nM.

For `N#CC12CC(n3nc4n(c3=O)[C@H](c3cccc(F)c3)CC4)(C1)C2` [Compound 1-24, (S)-3-(5-(3-fluorophenyl)-3-oxo-6,7-dihydro-3H-pyrrolo[2,1-c][1,2,4]triazol-2(5H)-yl)bicyclo[1.1.1]pentane-1-caronitrile], the EC50 stood at 29.7 nM.

As to `O=c1n(C23CC(F)(C2)C3)nc2n1[C@H](c1cc(F)cc(F)c1)C[C@H]2O` [Compound 5-1, (5S,7R)-5-(3,5-difluorophenyl)-2-(3-fluorobicyclo[1.1.1]pentan-1-yl)-7-hydroxy-2,5,6,7-tetrahydro-3H-pyrrolo[2,1-c][1,2,4]triazol-3-one], the half-maximal effective concentration (EC50) is 78.3 nM.

Consider `N#CC12CC(n3nc4n(c3=O)[C@H](c3ccc(F)c(F)c3)CC4)(C1)C2` [Compound 1-44, (S)-3-(5-(3,4-difluorophenyl)-3-oxo-6,7-dihydro-3H-pyrrolo[2,1-c][1,2,4]triazol-2(5H)-yl)bicyclo[1.1.1]pentane-1-carbonitrile], for which the concentration for a half-maximal effect (EC50) was determined as 67.7 nM.

In the case of `Cc1cnc([C@@H]2CCc3nn(C45CC(F)(C4)C5)c(=O)n32)cn1` [Compound 4-14, (S)-2-(3-fluorobicyclo[1.1.1]pentan-1-yl)-5-(5-methylpyrazin-2-yl)-2,5,6,7-tetrahydro-3H-pyrrolo[2,1-c][1,2,4]triazol-3-one], the EC50 was found to be 198 nM.

In the case of `O=c1n(C23CC(F)(C2)C3)nc2n1[C@H](c1ccccc1)CC2F` (single isomer, unassigned) [Compound 6-3, (5S)-7-(S or R)-fluoro-2-(3-fluorobicyclo[1.1.1]pentan-1-yl)-5-phenyl-2,5,6,7-tetrahydro-3H-pyrrolo[2,1-c][1,2,4]triazol-3-one], the EC50 came out at 157 nM.

Take `O=c1n(C23CC(F)(C2)C3)nc2n1[C@H](c1ccc(Cl)cc1)CC2` [Compound 1-45, (S)-5-(4-chlorophenyl)-2-(3-fluorobicyclo[1.1.1]pentan-1-yl)-2,5,6,7-tetrahydro-3H-pyrrolo[2,1-c][1,2,4]triazol-3-one]: the EC50 was determined as 37.7 nM.

For `O=c1n(C23CC(F)(C2)C3)nc2n1[C@H](c1cnccn1)CC2` [Compound 4-12, (S)-2-(3-fluorobicyclo[1.1.1]pentan-1-yl)-5-(pyrazin-2-yl)-2,5,6,7-tetrahydro-3H-pyrrolo[2,1-c][1,2,4]triazol-3-one], the EC50 is 84 nM.
